According to paper PMC8933873 (European Journal of Medicinal Chemistry, 2022):
Where two headings read alike, the source gives them in different places.

Legend:
[1] = GI permeability, 50 μM, 25 °C, 3 h
[2] = system: SARS-CoV-2 virus strain hCoV-19/Taiwan/4/2020; type: cell-based
SARS-CoV-2 [3] = conditions: read-out: Anti-SARS-CoV-2 IC50; literature value; cited from earlier work
TMEM16F = type: cell-based; conditions: 1 h treatment, Vero E6 cells, annexin XII
in vitro = conditions: PAMPA
SARS-CoV-2 [4] = experiment: Quantification of SARS-CoV-2 viral load via antibody staining; type: cell-based
COVID-19 = conditions: non-hospitalized adult patients with mild-to-moderate COVID-19, phase 3 study; cited from earlier work

Molecule | PAMPA [1] | antiviral efficacy in CPE screening [2] | other results
5-Chloro-N-(3-hydroxybenzyl)-2-hydroxybenzamide [Compound 13] | 15.9 10^−6 cm/s | inactive | 
5-Chloro-N-(4-hydroxybenzyl)-2-hydroxybenzamide [Compound 14] | 33.1 10^−6 cm/s | inactive | 
O=C(Nc1ccc([N+](=O)[O-])cc1Cl)c1cc(Cl)ccc1O [Compound 1, 5-Chloro-N-(2-chloro-4-nitrophenyl)-2-hydroxybenzamide] | 8.5 10^−6 cm/s |  | IC50 (SARS-CoV-2 [3]): 340 nM; phosphatidylserine externalization triggered by ionomycin (TMEM16F; 100 nM): significantly reduced the signal of phosphatidylserine on cell surface
O=C(Nc1ccccc1)c1cc(Cl)ccc1O [Compound 2, 5-Chlorosalicylanilide] | 16.0 10^−6 cm/s | antiviral efficacy that were superior to their cytotoxicity | 
O=C(Nc1ccc([N+](=O)[O-])cc1)c1cc(Cl)ccc1O [Compound 3, 5-Chloro-N-(4-nitrophenyl)-2-hydroxybenzamide] |  | antiviral efficacy that were superior to their cytotoxicity | Papp (in vitro): 12.4 ×10⁻⁶ cm/s
O=C(Nc1cccc([N+](=O)[O-])c1)c1cc(Cl)ccc1O [Compound 4, 5-Chloro-N-(3-nitrophenyl)-2-hydroxybenzamide] | 19.5 10^−6 cm/s | antiviral efficacy that were superior to their cytotoxicity | 
O=C(Nc1ccc([N+](=O)[O-])c(Cl)c1)c1cc(Cl)ccc1O [Compound 5, 5-Chloro-N-(3-chloro-4-nitrophenyl)-2-hydroxybenzamide] |  |  | anti-SARS-CoV-2 activity relative to niclosamide (SARS-CoV-2 [4]): 7 fold
O=C(Nc1cccc(Cl)c1)c1cc(Cl)ccc1O [Compound 6, 5-Chloro-N-(3-chlorophenyl)-2-hydroxybenzamide] | 8.6 10^−6 cm/s | antiviral efficacy that were superior to their cytotoxicity | 
O=C(Nc1ccc(F)c(Cl)c1)c1cc(Cl)ccc1O [Compound 7, 5-Chloro-N-(3-chloro-4-fluorophenyl)-2-hydroxybenzamide] | 11.5 10^−6 cm/s | diminished | 
O=C(Nc1ccc(F)cc1)c1cc(Cl)ccc1O [Compound 8, 5-Chloro-N-(4-fluorophenyl)-2-hydroxybenzamide] |  | inactive | Papp (in vitro): 18.2 ×10⁻⁶ cm/s
O=C(Nc1cccc(F)c1)c1cc(Cl)ccc1O [Compound 9, 5-Chloro-N-(3-fluorophenyl)-2-hydroxybenzamide] | 3.7 10^−6 cm/s | inactive | 
O=C(Nc1ccc(C(F)(F)F)cc1)c1cc(Cl)ccc1O [Compound 10, 5-Chloro-N-(4-trifluoromethylphenyl)-2-hydroxybenzamide] | 6.9 10^−6 cm/s | antiviral efficacy that were superior to their cytotoxicity | 
O=C(Nc1cccc(C(F)(F)F)c1)c1cc(Cl)ccc1O [Compound 11, 5-Chloro-N-(3-trifluoromethylphenyl)-2-hydroxybenzamide] | 4.2 10^−6 cm/s | antiviral efficacy that were superior to their cytotoxicity | 
CC(C)(C)c1cccc(NC(=O)c2cc(Cl)ccc2O)c1 [Compound 12, 5-Chloro-N-(3-tert-butylphenyl)-2-hydroxybenzamide] | 18.7 10^−6 cm/s | antiviral efficacy that were superior to their cytotoxicity | 
O=C(Nc1ccc(N2CCCCC2)cc1)c1cc(Cl)ccc1O [Compound 15, 5-Chloro-N-(4-(piperidin-1-yl)phenyl)-2-hydroxybenzamide] | 43.3 10^−6 cm/s | inactive | 
Cc1ccc(CNC(=O)c2cc(Cl)ccc2O)cc1 [Compound 16, 5-Chloro-N-(4-methylbenzyl)-2-hydroxybenzamide] | 42.6 10^−6 cm/s | did not show viral inhibition | 
Cc1cccc(CNC(=O)c2cc(Cl)ccc2O)c1 [Compound 17, 5-Chloro-N-(3-methylbenzyl)-2-hydroxybenzamide] | 28.4 10^−6 cm/s | did not show viral inhibition | 
O=C(Nc1ccc([N+](=O)[O-])cc1Cl)c1ccccc1O [Compound 18, N-(2-chloro-4-nitrophenyl)-2-hydroxybenzamide] | 15.3 10^−6 cm/s | antiviral efficacy that were superior to their cytotoxicity | 
O=C(Nc1ccc([N+](=O)[O-])cc1Cl)c1ccccc1 [Compound 19, N-(2-chloro-4-nitrophenyl)benzamide] | 42.2 10^−6 cm/s |  | 
Cc1ccc(O)c(C(=O)Nc2ccc([N+](=O)[O-])cc2Cl)c1 [Compound 20, 5-Methyl-N-(2-chloro-4-nitrophenyl)-2-hydroxybenzamide] | 20.9 10^−6 cm/s | diminished | 
Cc1ccc(C(=O)Nc2ccc([N+](=O)[O-])cc2Cl)c(O)c1 [Compound 21, 4-Methyl-N-(2-chloro-4-nitrophenyl)-2-hydroxybenzamide] | 6.1 10^−6 cm/s | diminished | 
O=C(Nc1ccc([N+](=O)[O-])cc1Cl)c1cc(F)ccc1O [Compound 22, 5-Fluoro-N-(2-chloro-4-nitrophenyl)-2-hydroxybenzamide] | 30.7 10^−6 cm/s | diminished | 
O=C(Nc1ccc(O[C@@H]2O[C@H](CO)[C@@H](O)[C@H](O)[C@H]2O)cc1)c1cc(Cl)ccc1O [Compound 27, 5-Chloro-N-(4-phenyl-β-D-glucopyranoside)-2-hydroxybenzamide] | 1.9 10^−6 cm/s | inactive | 
CC(C)C(=O)OC[C@H]1O[C@@H](n2ccc(NO)nc2=O)[C@H](O)[C@@H]1O [Molnupiravir] |  |  | reduction of the risk of hospitalization or death (COVID-19): 30%
Cc1c(O)cccc1C(=O)N[C@@H](CSc1ccccc1)[C@H](O)CN1C[C@H]2CCCC[C@H]2C[C@H]1C(=O)NC(C)(C)C [Nelfinavir] |  |  | phosphatidylserine externalization triggered by ionomycin (TMEM16F; 500 nM): no inhibition
